The source of these data is patent US12376589B2, “Chryseobacterium insect inhibitory microbial compositions and methods of making and using” (priority 2021, dated 2025).

SMILES strings stand for the structures. In brackets after ≈: the same amount, converted by molar mass. Like-named read-outs stand apart in the source and are kept apart here.

In one assay the test system is Aedes aegypti larvae. Briefly: whole plant or invertebrate. To be noted: Aedes aegypti. From the text: (§1) Measuring potency of 3,3-diindolylmethane and 3-((1H-indol-2-yl)methyl)-1H-indole. 3,3′-Diindolylmethane (also called arundine, CAS number: 1968-05-4) was purchased from MILLIPORESIGMA (cat #74601) and Cayman Chemical (catalog #15927). 3-((1H-indol-2-yl)methyl)-1H-indole (CAS number: 114648-66-7) was purchased from Ambeed (catalog #A735658). Compounds were resuspended in dimethyl sulfoxide (DMSO). For collecting data to construct dose curves for 3,3-diindolylmethane and 3-((1H-indol-2-yl)methyl)-1H-indole, a series of twenty 1:2 dilutions was made to test in bioassays, establish a dose curve, and determine the LC50 value.
(§2) Aedes aegypti bioassays with compounds. Assays were performed using second or third instar larvae, with biological replication. Larvae were washed with sterile water before transfer to 24-well assay plates containing 1 mL of sterile water in each well. Each well contained 5 larvae. Compound dilutions were made in DMSO, topped with sterile NYSM broth and applied to each assay well. The final DMSO concentration was 1% in each assay well. Larval mortality was scored for each well at 24-hour timepoints after application.
Heat treatments. Samples were heated in 1.5-mL microfuge tubes in a standard laboratory heat block at the indicated temperature and time.
The EtOAc fraction was redissolved in MeOH and subjected to chromatographic fractionation (FIG. 11C) using preparative reversed-phase HPLC (Phenomenex Luna phenylhexyl, 21.2 mm×15 cm, 5 μm, 20 mL/min, isocratic elution with 80% H2O/MeCN for 2 min followed by gradient elution from 80% H2O/MeCN to 100% MeCN over 30 min then isocratic elution with 100% MeCN for 5 min) to yield 30 fractions. The preparative HPLC fractions (at concentrations of 200 μg/mL and 20 μg/mL) were tested against Aedes aegypti.

For assay [1], the system named is Culex quinquefasciatus larvae. Put plainly: whole plant or invertebrate.
Text: as §1
as §2, with “Culex quinquefasciatus” for “Aedes aegypti”, “compounds. First or second instar Culex quinquefasciatus larvae were purchased from Benzon Research, Inc. (Carlisle, PA).” for “compounds.”, “with” for “using second or”, “larvae.” for “larvae, with biological replication.”, “Larvae” for “Larval”

The mark [2] stands for this setting: read-out: LC50 (representative curve fit).

What is called LC50 is the concentration that kills 50% of the test population.

Take `c1ccc2[nH]c(Cc3c[nH]c4ccccc34)cc2c1` [3-((1H-indol-2-yl)methyl)-1H-indole]: the LC50 with Aedes aegypti larvae (setting [2]) came to 5.8 µg/mL (≈ 23.5 µM); with Aedes aegypti larvae (read-out: mean LC50), 6.3 ± 2.1 µg/mL (≈ 25.6 µM); in assay [1] (setting [2]), 1.5 µg/mL (≈ 6.09 µM); in assay [1] (read-out: mean LC50) it was 0.95 ± 0.75 µg/mL (≈ 3.86 µM).
